# Columns and labels:
# Assay type in all cases: biochemical
# [1] = target: T1, MMP-14 (Homo sapiens, UniProt P50281); test: MMP-14 inhibition (in vitro Ki); conditions: Table 9; read-out: MMP-14 Ki (IC-50)
# T1 construct: The catalytic domain enzyme was expressed in E. coli inclusion bodies, solubilized in urea; made in house
# [2] = target: T2, MMP-13 (Homo sapiens, UniProt P45452); test: MMP-13 inhibition (in vitro Ki); conditions: Table 9; read-out: MMP-13 Ki (IC-50)
# T2 construct: made in house; host or cells: baculovirus / insect cells
# [3] = target: T3, MMP-2 (Homo sapiens, UniProt P08253); test: MMP-2 inhibition (in vitro Ki); conditions: Table 9; read-out: MMP-2 Ki (IC-50)
# T3 construct: made in house; host or cells: MMP-2-transfected p2AHT2 cells
# T3 sequence (P08253 110-660): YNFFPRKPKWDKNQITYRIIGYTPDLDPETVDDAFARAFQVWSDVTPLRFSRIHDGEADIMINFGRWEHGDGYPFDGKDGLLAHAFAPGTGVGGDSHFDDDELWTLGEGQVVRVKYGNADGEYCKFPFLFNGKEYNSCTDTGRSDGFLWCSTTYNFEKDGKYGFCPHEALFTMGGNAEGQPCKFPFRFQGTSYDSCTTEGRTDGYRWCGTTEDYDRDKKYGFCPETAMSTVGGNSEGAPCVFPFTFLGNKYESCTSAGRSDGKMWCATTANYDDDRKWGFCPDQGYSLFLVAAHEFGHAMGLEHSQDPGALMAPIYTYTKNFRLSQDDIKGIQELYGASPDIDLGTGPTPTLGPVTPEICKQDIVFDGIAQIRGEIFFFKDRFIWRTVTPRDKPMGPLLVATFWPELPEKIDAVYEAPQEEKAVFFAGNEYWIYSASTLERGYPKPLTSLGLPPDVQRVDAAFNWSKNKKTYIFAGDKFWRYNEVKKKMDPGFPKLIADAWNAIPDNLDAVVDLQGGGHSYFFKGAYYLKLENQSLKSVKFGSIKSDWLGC
# [4] = target: T4, MMP-9 (Homo sapiens, UniProt P14780); test: MMP-9 inhibition (in vitro Ki); conditions: Table 9; read-out: MMP-9 Ki (IC-50)
# T4 construct: made in house; host or cells: MMP-9-transfected HT1080 cells (spent media)
# [5] = target: T5, MMP-1 (Homo sapiens, UniProt P03956); test: MMP-1 inhibition (in vitro Ki); conditions: Table 9; read-out: MMP-1 Ki (IC-50)
# T5 construct: made in house; host or cells: MMP-1-transfected HT-1080 cells (spent media)
# T5 sequence (P03956 100-469): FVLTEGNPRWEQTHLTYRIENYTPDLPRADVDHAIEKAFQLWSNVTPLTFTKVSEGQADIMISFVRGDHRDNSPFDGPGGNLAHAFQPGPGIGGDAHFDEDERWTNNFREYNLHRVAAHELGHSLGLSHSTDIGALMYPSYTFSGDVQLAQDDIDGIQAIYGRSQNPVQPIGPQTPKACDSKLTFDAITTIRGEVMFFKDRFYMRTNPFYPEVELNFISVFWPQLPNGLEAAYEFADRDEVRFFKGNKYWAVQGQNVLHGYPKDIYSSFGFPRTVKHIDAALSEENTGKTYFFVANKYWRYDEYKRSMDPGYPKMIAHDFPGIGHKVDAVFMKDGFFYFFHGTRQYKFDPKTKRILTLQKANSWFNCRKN
# T4 sequence (P14780 107-707 limits assumed): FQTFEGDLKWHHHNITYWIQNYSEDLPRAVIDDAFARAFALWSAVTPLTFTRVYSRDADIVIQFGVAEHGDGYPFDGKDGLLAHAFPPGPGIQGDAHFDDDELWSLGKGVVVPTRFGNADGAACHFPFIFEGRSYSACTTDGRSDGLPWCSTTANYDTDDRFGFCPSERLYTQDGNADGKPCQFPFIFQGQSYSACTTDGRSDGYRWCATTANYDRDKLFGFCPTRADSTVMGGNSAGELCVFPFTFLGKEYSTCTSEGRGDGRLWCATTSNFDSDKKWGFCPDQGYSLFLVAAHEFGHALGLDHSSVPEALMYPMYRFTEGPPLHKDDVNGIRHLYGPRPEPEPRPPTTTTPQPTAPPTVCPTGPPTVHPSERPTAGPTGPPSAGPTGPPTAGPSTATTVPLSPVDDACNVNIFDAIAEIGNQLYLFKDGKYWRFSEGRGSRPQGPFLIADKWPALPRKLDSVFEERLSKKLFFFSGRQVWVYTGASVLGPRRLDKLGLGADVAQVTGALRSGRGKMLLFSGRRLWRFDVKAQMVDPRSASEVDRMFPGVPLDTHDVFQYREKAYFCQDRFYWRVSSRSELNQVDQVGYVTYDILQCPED
SMILES,Ki [1] [µM],Ki [2] [nM],Ki [3] [nM],Ki [4] [nM],Ki [5] [µM]
CCC(CC)(C(=O)NO)S(=O)(=O)N1CCC(c2ccc(OCC3CC3)cn2)CC1 [Example A124],7.29,3.11,3.42,0.59,3.04
CN(C(=O)CCCCN1CCN(S(=O)(=O)C2(C(=O)NO)CCOCC2)CC1)C1CCCCC1 [Example A125],> 10,106,> 10000,> 10000,> 10
O=C(NO)C1(S(=O)(=O)N2CCC(c3ccc(CCC(F)(F)C(F)(F)F)cn3)CC2)CCC1 [Example A126],1.3,0.06,0.27,0.14,2.75
O=C(NO)C1(S(=O)(=O)N2CCC(c3ccc(C(F)(F)CCC(F)(F)F)cn3)CC2)CCOCC1 [Example A128],> 10,0.84,3.33,8.82,5.19
CCC(F)(F)c1ccc(C2CCN(S(=O)(=O)C3(C(=O)NO)CCOCC3)CC2)nc1 [Example A129],4.54,2.81,2.96,10.8,0.65
CN(C(=O)CCCN1CCN(S(=O)(=O)C2(C(=O)NO)CCOCC2)CC1)C1CCCCC1 [Example A130],> 10,2910,> 10000,> 10000,> 10
Cc1ccc(N2CCC(C(=O)NO)(S(=O)(=O)N3CCC(c4ccc(CCC(F)(F)C(F)(F)F)cn4)CC3)CC2)cn1 [Example A131],1.91,0.34,1.2,0.57,> 10
CC(C)COc1cnc(C2CCN(S(=O)(=O)C3(C(=O)NO)CCOCC3)CC2)cn1 [Example A132],5.29,1.48,2.29,0.45,7.17
O=C(NO)C1(S(=O)(=O)N2CCC(c3ccc(C#CCCO)cn3)CC2)CCOCC1 [Example A133],3.87,1.12,0.77,1.07,1.9
O=C(NO)C1(S(=O)(=O)N2CCC(c3ccc(C#CCc4ccccc4)cn3)CC2)CCOCC1 [Example A134],0.191,0.109,0.65,1.25,1.25
CC(=O)OCCCC#Cc1ccc(C2CCN(S(=O)(=O)C3(C(=O)NO)CCOCC3)CC2)nc1 [Example A135],0.609,0.28,0.31,0.48,2.62
COC(=O)CCCC#Cc1ccc(C2CCN(S(=O)(=O)C3(C(=O)NO)CCOCC3)CC2)nc1 [Example A136],1.15,0.48,0.33,2.03,4.3
CCCCC#Cc1ccc(C2CCN(S(=O)(=O)C3(C(=O)NO)CCOCC3)CC2)nc1 [Example A137],0.221,0.09,0.37,0.32,1.26
CC(C)CC#Cc1ccc(C2CCN(S(=O)(=O)C3(C(=O)NO)CCOCC3)CC2)nc1 [Example A138],0.763,0.14,0.68,0.24,3.44
CCCC#Cc1ccc(C2CCN(S(=O)(=O)C3(C(=O)NO)CCOCC3)CC2)nc1 [Example A139],0.401,0.17,0.5,0.15,2.34
O=C(CCCCN1CCN(S(=O)(=O)C2(C(=O)NO)CCOCC2)CC1)c1cccc(OC(F)(F)F)c1 [Example A140],> 10,12.5,390,814,> 10

SMILES,Ki [1] [µM],Ki [2] [nM],Ki [3] [nM],Ki [4] [nM],Ki [5] [µM]
CN(Cc1ccco1)C(=O)CCCC1CCN(S(=O)(=O)C2(C(=O)NO)CCOCC2)CC1 [Example A141],> 10,3.4,219,348,6.9
Cc1ccc(N(C)C(=O)CCCC2CCN(S(=O)(=O)C3(C(=O)NO)CCOCC3)CC2)cc1 [Example A142],> 10,66.4,358,184,> 10
CN(C(=O)CCCC1CCN(S(=O)(=O)C2(C(=O)NO)CCOCC2)CC1)c1ccccc1 [Example A143],> 10,50.8,686,389,> 10
CN(C(=O)CCCC1CCN(S(=O)(=O)C2(C(=O)NO)CCOCC2)CC1)C1CCCCC1 [Example A144],> 10,22.2,958,1520,> 10
CCCN(C(=O)CCCC1CCN(S(=O)(=O)C2(C(=O)NO)CCOCC2)CC1)c1ccccc1 [Example A145],6.52,23,26.3,15.2,> 10
CN(C(=O)CCCC1CCN(S(=O)(=O)C2(C(=O)NO)CCOCC2)CC1)c1ccc(F)cc1 [Example A146],> 10,31.8,344,262,> 10
CCN(C(=O)CCCC1CCN(S(=O)(=O)C2(C(=O)NO)CCOCC2)CC1)c1ccccc1 [Example A147],> 10,44.8,76.1,42.9,> 10
COC(=O)CCCC1CCN(S(=O)(=O)C2(C(=O)NO)CCOCC2)CC1 [Example A148],1.73,5.21,6.67,3.79,2.71
COCCOc1ccc(C2CCN(S(=O)(=O)C3(C(=O)NO)CCOCC3)CC2)nc1 [Example A149],6.55,2.63,4.42,7.04,> 10
O=C(CCCCN1CCN(S(=O)(=O)C2(C(=O)NO)CCOCC2)CC1)c1ccc(OC(F)(F)F)cc1 [Example A150],> 10,19.8,243,1030,> 10
O=C(NO)C1(S(=O)(=O)N2CCC(c3cnc(OCC4CC4)cn3)CC2)CCOCC1 [Example A151],3.1,1.53,1.34,0.72,> 10
CC(F)(F)Cc1ccc(C2CCN(S(=O)(=O)C3(C(=O)NO)CCOCC3)CC2)nc1 [Example A152],4.33,5.25,2.36,9.85,> 10
O=C(NO)C1(S(=O)(=O)N2CCC(OCCCn3nnc(-c4ccc(OC(F)(F)F)cc4)n3)CC2)CCOCC1 [Example A153],> 10,0.37,175,1910,> 10
CCCC(F)(F)c1ccc(C2CCN(S(=O)(=O)C3(C(=O)NO)CCOCC3)CC2)nc1 [Example A156],> 10,1.57,3.14,9.5,4.55
O=C(NO)C1(S(=O)(=O)N2CCC(F)(c3ccc(CCCC(F)(F)F)cn3)CC2)CCOCC1 [Example A157],> 10,2.54,36.5,2.94,> 10
O=C(NO)C1(S(=O)(=O)N2CCC(c3ccc(CCC(F)(F)C(F)(F)F)cn3)CC2)CCN(c2ccc(Cl)cc2)CC1 [Example A158],> 10,8.98,14.6,13.4,> 10

# Source: patent US20050209278A1, “Piperidinyl- and piperazinyl-sulfonylmethyl hydroxamic acids and their use as protease inhibitors” (priority 2002, published 2005)
